Data from US12486269B2 (Aconcagua Bio, Inc., priority 2024, dated 2025).

Experiments:
[1] = target: T1, COS-7/AMY3 (human calcitonin receptor (CTR) and RAMP3) (Homo sapiens, UniProt O60896+P30988); assay: Amylin Receptor cAMP Assay II; format: cell-based; settings: values marked **: Amylin Receptor cAMP Assay II; COS-7/AMY3 cells, cAMP dynamic 2 kit, 30 min; read-out: Amylin Receptor cAMP Stimulation Activity: EC50
T1 construct: expressed in transfected cells; host or cells: COS-7
How it was run: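 Agonist-induced cAMP was quantified by HTRF ratio at 665/615 nm and expressed as % of the window from vehicle to MAX control. Stimulation lasted 30 min at 37 °C in HBSS/20 mM HEPES/0.5 mM IBMX/0.1% casein, using stable human CTR+RAMP3 (AMY3) COS-7 cells at 2000 per well.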

[2] = target: T2, human calcitonin receptor (CTR) (Homo sapiens, UniProt P30988); assay: Calcitonin Receptor (CTR) cAMP Assay; format: cell-based; settings: COS7-human CTR Clone #2 stable cell line, cAMP dynamic 2 kit, 30 min; read-out: Calcitonin Receptor cAMP Stimulation Activity: EC50
T2 construct: expressed in transfected cells; host or cells: COS-7 (COS7-human CTR Clone #2)
T2 sequence (P30988 25-474): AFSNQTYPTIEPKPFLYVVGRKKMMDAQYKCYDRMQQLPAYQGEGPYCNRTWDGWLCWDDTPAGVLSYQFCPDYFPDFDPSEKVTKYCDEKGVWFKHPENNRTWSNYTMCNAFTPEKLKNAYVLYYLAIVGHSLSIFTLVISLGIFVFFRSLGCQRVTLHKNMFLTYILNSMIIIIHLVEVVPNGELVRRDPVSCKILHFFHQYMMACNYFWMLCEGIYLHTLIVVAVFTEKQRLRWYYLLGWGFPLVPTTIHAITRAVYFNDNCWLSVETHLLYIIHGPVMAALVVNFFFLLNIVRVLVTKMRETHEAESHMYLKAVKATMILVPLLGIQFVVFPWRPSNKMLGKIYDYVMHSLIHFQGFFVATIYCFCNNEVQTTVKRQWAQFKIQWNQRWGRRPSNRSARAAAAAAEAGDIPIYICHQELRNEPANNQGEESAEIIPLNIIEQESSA
How it was run: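 cAMP accumulation was measured by HTRF cAMP dynamic 2 read at 665/615 nm, 1 h at room temperature, with results scaled between vehicle and positive control. Before detection, COS7-human CTR stable cells were stimulated 30 min at 37 °C with compound (4-fold dilutions) in IBMX-containing HBSS/HEPES/casein buffer.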

T1 sequence (O60896 24-148, one chain of several): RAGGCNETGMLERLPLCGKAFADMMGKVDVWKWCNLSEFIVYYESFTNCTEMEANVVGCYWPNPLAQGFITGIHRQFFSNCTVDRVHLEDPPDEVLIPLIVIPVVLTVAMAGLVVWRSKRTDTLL

SMILES | EC50 [1] | EC50 [2]
CC(c1ccc(C#N)c(F)c1)n1c(=O)oc2cc(-c3c4c(nc(CCc5ccc(F)cc5)c3-c3n[nH]c(=O)o3)[C@@H]3CCCN3C4=O)ccc21 (stereo partly drawn) [Compound 209, 2-fluoro-4-(1-(6-((S)-2-(4-fluorophenethyl)-5-oxo-3-(5-oxo-4,5-dihydro-1,3,4-oxadiazol-2-yl)-7,8,9,9a-tetrahydro-5H-pyrido[2,3-a]pyrrolizin-4-yl)-2-oxobenzo[d]oxazol-3(2H)-yl)ethyl)benzonitrile] | 17.2 nM | 0.154 nM
O=C1c2c(nc(CCC3CCOCC3)c(-c3cc(=O)[nH]o3)c2-c2ccc3c(ccn3Cc3ccc(F)c(F)c3)c2)[C@@H]2CCCN12 [Compound 201, (S)-5-(4-(1-(3,4-difluorobenzyl)-1H-indol-5-yl)-5-oxo-2-(2-(tetrahydro-2H-pyran-4-yl)ethyl)-7,8,9,9a-tetrahydro-5H-pyrido[2,3-a]pyrrolizin-3-yl)isoxazol-3(2H)-one] | 1370 nM | 19.3 nM
COc1c(F)ccc2c1CC(F)(F)[C@@H]2Nc1nccc2cc(-c3c4c(nc(CCc5ccc(F)cc5)c3-c3n[nH]c(=O)o3)C35CC(CN3C4=O)C5)sc12 [Compound 292, (R)-5-(2-(4-fluorophenethyl)-5-oxo-4-(7-((2,2,5-trifluoro-4-methoxy-2,3-dihydro-1H-inden-1-yl)amino)thieno[2,3-c]pyridin-2-yl)-5,7,8,9-tetrahydro-8,9a-methanopyrido[2,3-a]pyrrolizin-3-yl)-1,3,4-oxadiazol-2(3H)-one] | 298 nM | 7.36 nM
COc1c(F)ccc2c1CC[C@H]2Nc1ccnc2cc(-c3c4c(nc(CCc5ccc(F)cc5)c3-c3n[nH]c(=O)o3)C35CC(CN3C4=O)C5)sc12 [Compound 271, (R)-5-(4-(7-((5-fluoro-4-methoxy-2,3-dihydro-1H-inden-1-yl)amino)thieno[3,2-b]pyridin-2-yl)-2-(4-fluorophenethyl)-5-oxo-8,9-dihydro-5H,7H-8,9a-methanopyrido[2,3-a]pyrrolizin-3-yl)-1,3,4-oxadiazol-2(3H)-one] | 3.13 nM | 0.178 nM
CC(c1ccc(C#N)cn1)n1c(=O)oc2cc(-c3c4c(nc(CCc5ccc(F)cc5)c3-c3n[nH]c(=O)o3)[C@@H]3CCCN3C4=O)ccc21 (stereo partly drawn) [Compound 160, 6-[1-[6-[(9aS)-2-[2-(4-fluorophenyl)ethyl]-5-oxo-3-(2-oxo-3H-1,3,4-oxadiazol-5-yl)-7,8,9,9a-tetrahydropyrido[2,3-a]pyrrolizin-4-yl]-2-oxo-1,3-benzoxazol-3-yl]ethyl]pyridine-3-carbonitrile] | 12.2 nM | 0.724 nM
COc1cccc2c1CC[C@H]2Nc1nccc2cc(-c3c4c(nc(CCc5ccc(F)cc5)c3-c3n[nH]c(=O)o3)[C@H]3CCCN3C4=O)sc12 [Compound 229, 5-((R)-2-(4-fluorophenethyl)-4-(7-(((R)-4-methoxy-2,3-dihydro-1H-inden-1-yl)amino)thieno[2,3-c]pyridin-2-yl)-5-oxo-7,8,9,9a-tetrahydro-5H-pyrido[2,3-a]pyrrolizin-3-yl)-1,3,4-oxadiazol-2(3H)-one] | 48.4 nM | 13.4 nM
O=C1c2c(nc(CCc3ccc(F)cc3)c(-c3noc(=O)[nH]3)c2-c2cc3ccnc(N[C@@H]4CCCc5ccccc54)c3s2)[C@@H]2CCCN12 [Compound 139] | 41.5 nM | 2.7 nM
COc1c(F)ccc2c1CC(F)(F)[C@H]2Nc1nccc2cc(-c3c4c(nc(CCc5ccc(F)cc5)c3-c3n[nH]c(=O)o3)C35CC(CN3C4=O)C5)sc12 [Compound 283, (S)-5-(2-(4-fluorophenethyl)-5-oxo-4-(7-((2,2,5-trifluoro-4-methoxy-2,3-dihydro-1H-inden-1-yl)amino)thieno[2,3-c]pyridin-2-yl)-5,7,8,9-tetrahydro-8,9a-methanopyrido[2,3-a]pyrrolizin-3-yl)-1,3,4-oxadiazol-2(3H)-one] | 1.57 nM | 0.0191 nM
COc1c(F)ccc2c1CC(F)(F)[C@H]2Nc1nc(C)cc2cc(-c3c4c(nc(CCc5ccc(F)cc5)c3-c3n[nH]c(=O)o3)[C@@H]3CCCN3C4=O)sc12 [Compound 303, 5-((S)-2-(4-fluorophenethyl)-4-(5-methyl-7-(((S)-2,2,5-trifluoro-4-methoxy-2,3-dihydro-1H-inden-1-yl)amino)thieno[2,3-c]pyridin-2-yl)-5-oxo-7,8,9,9a-tetrahydro-5H-pyrido[2,3-a]pyrrolizin-3-yl)-1,3,4-oxadiazol-2(3H)-one] | 0.695 nM | 0.0337 nM

Further compounds by falling EC50 [1], results first:

EC50 [1] | EC50 [2] | SMILES
203 nM | 3.19 nM | COc1cccc2c1CC[C@H]2Nc1nccc2cc(-c3c4c(nc(CCc5ccc(F)cc5)c3-c3n[nH]c(=O)o3)[C@]3(C)CCCN3C4=O)sc12 [Compound 178, 5-((S)-2-(4-fluorophenethyl)-4-(7-(((R)-4-methoxy-2,3-dihydro-1H-inden-1-yl)amino)thieno[2,3-c]pyridin-2-yl)-9a-methyl-5-oxo-7,8,9,9a-tetrahydro-5H-pyrido[2,3-a]pyrrolizin-3-yl)-1,3,4-oxadiazol-2(3H)-one]
102 nM | 4.5 nM | COc1cccc2c1CC[C@H]2Nc1nccc2cc(-c3c4c(nc(C[C@@H]5CCc6cc(F)ccc65)c3-c3n[nH]c(=O)o3)[C@@H]3CCCN3C4=O)sc12 [Compound 250, 5-((S)-2-(((S)-5-fluoro-2,3-dihydro-1H-inden-1-yl)methyl)-4-(7-(((R)-4-methoxy-2,3-dihydro-1H-inden-1-yl)amino)thieno[2,3-c]pyridin-2-yl)-5-oxo-7,8,9,9a-tetrahydro-5H-pyrido[2,3-a]pyrrolizin-3-yl)-1,3,4-oxadiazol-2(3H)-one]
50.5 nM | 0.711 nM | COc1cccc2c1CC[C@H]2Nc1nccc2cc(-c3c4c(nc(CCc5ccccc5C(F)(F)F)c3-c3noc(=O)[nH]3)[C@@H]3CCCN3C4=O)sc12 [Compound 125, 3-((S)-4-(7-(((R)-4-methoxy-2,3-dihydro-1H-inden-1-yl)amino)thieno[2,3-c]pyridin-2-yl)-5-oxo-2-(2-(trifluoromethyl)phenethyl)-7,8,9,9a-tetrahydro-5H-pyrido[2,3-a]pyrrolizin-3-yl)-1,2,4-oxadiazol-5(4H)-one]
23.4 nM | 0.975 nM | COc1cc(Cl)cc2c1CC[C@H]2Nc1nccc2cc(-c3c4c(nc(CCc5ccc(F)cc5)c3-c3n[nH]c(=O)o3)[C@@H]3CCCN3C4=O)sc12 [Compound 239, 5-((S)-4-(7-(((R)-6-chloro-4-methoxy-2,3-dihydro-1H-inden-1-yl)amino)thieno[2,3-c]pyridin-2-yl)-2-(4-fluorophenethyl)-5-oxo-7,8,9,9a-tetrahydro-5H-pyrido[2,3-a]pyrrolizin-3-yl)-1,3,4-oxadiazol-2(3H)-one]
4.23 nM | 0.143 nM | O=C1c2c(nc(CCc3ccc(F)cc3)c(-c3n[nH]c(=O)o3)c2-c2cc3ccnc(N[C@@H]4CCc5c(F)cc(F)cc54)c3s2)[C@@H]2CCCN12 [Compound 183, 5-((S)-4-(7-(((R)-4,6-difluoro-2,3-dihydro-1H-inden-1-yl)amino)thieno[2,3-c]pyridin-2-yl)-2-(4-fluorophenethyl)-5-oxo-7,8,9,9a-tetrahydro-5H-pyrido[2,3-a]pyrrolizin-3-yl)-1,3,4-oxadiazol-2(3H)-one]
3.97 nM | 0.134 nM | COc1c(F)ccc2c1CC[C@H]2Nc1nc(C)cc2cc(-c3c4c(nc(CCc5ccc(F)cc5)c3-c3n[nH]c(=O)o3)C(C3CC3)NC4=O)sc12 (stereo partly drawn) [Compound 302, 5-(7-cyclopropyl-4-(7-(((R)-5-fluoro-4-methoxy-2,3-dihydro-1H-inden-1-yl)amino)-5-methylthieno[2,3-c]pyridin-2-yl)-2-(4-fluorophenethyl)-5-oxo-6,7-dihydro-5H-pyrrolo[3,4-b]pyridin-3-yl)-1,3,4-oxadiazol-2(3H)-one]
0.208 nM | 0.0136 nM | O=C1c2c(nc(CCc3ccc(F)cc3)c(-c3n[nH]c(=O)o3)c2-c2cc3ccnc(N[C@@H]4CCc5c4ccc(F)c5OC(F)F)c3s2)C23CC(CN12)C3 [Compound 285, (R)-5-(4-(7-((4-(difluoromethoxy)-5-fluoro-2,3-dihydro-1H-inden-1-yl)amino)thieno[2,3-c]pyridin-2-yl)-2-(4-fluorophenethyl)-5-oxo-5,7,8,9-tetrahydro-8,9a-methanopyrido[2,3-a]pyrrolizin-3-yl)-1,3,4-oxadiazol-2(3H)-one]
0.175 nM | 0.00668 nM | COc1c(F)c(F)cc2c1CC[C@H]2Nc1nccc2cc(-c3c4c(nc(CCc5ccc(F)cc5)c3-c3n[nH]c(=O)o3)C35CC(CN3C4=O)C5)sc12 [Compound 286, (R)-5-(4-(7-((5,6-difluoro-4-methoxy-2,3-dihydro-1H-inden-1-yl)amino)thieno[2,3-c]pyridin-2-yl)-2-(4-fluorophenethyl)-5-oxo-8,9-dihydro-5H,7H-8,9a-methanopyrido[2,3-a]pyrrolizin-3-yl)-1,3,4-oxadiazol-2(3H)-one]
